Assay results as given in patent US9133131B2 (Purdue Pharma L.P., priority 2011, dated 2015).

How the values were obtained:
human Nav1.7 = human Nav1.7 (Homo sapiens (Human), UniProt Q15858); assay: FLIPR sodium dye assay for sodium channel blocking activity; type: cell-based; conditions: recombinant human Nav1.7 in HEK293 cells
Description: For dominant selection of the Nav1.7-expressing clones, the expression plasmid co-expressed the neomycin resistance gene. […] Recombinant beta and gamma subunits were not introduced into this cell line. Additional cell lines expressing recombinant Nav1.7 cloned from other species can also be used, alone or in combination with various beta subunits, gamma subunits or chaperones.
Cell maintenance: Unless otherwise noted, cell culture reagents were purchased from Mediatech of Herndon, Va. The recombinant Nav1.7/HEK293 cells were routinely cultured in growth medium consisting of Dulbecco's […] essential medium containing 10% fetal bovine serum (FBS, Hyclone, Thermo Fisher Scientific, Logan, Utah), 100 U/mL penicillin, 100 μg/mL streptomycin, 2-4 mM L-glutamine, and […] G418. For natural, non-recombinant cell lines, the selective antibiotic was omitted, and additional media formulations can be applied as needed.
The intensity of this emission, but not the wavelength range, is increased when the dye is exposed to Na^+ ions, which it can bind with partial selectivity. Cells expressing Nav1.7 or other sodium channels were loaded with the CoroNa™ Green dye immediately in advance of the fluorescence assay, and then, after agonist stimulation, the mobilization of Na^+ ions was detected as the Na^+ ions flowed from the extracellular fluid into the cytoplasm through the activated sodium channel pores. The dye was stored in the dark as a lyophilized powder, and then an aliquot was dissolved immediately before the cell loading procedure, according to the instructions of the manufacturer to a stock concentration of 10 mM in DMSO. It was then diluted in the assay buffer to a 4× concentrated working solution, so that the final concentration of dye in the cell loading buffer was 5 μM.
These scorpion toxins inhibit the fast inactivation of their cognate target channels. Stock solutions of the agonists were prepared to 40 mM in DMSO (veratridine) and 1 mg/mL in dH2O (scorpion venom), and then diluted to make a 4× or 2× stock (depending on the particular assay) in assay buffer, the final concentration being 100 μM (veratridine) and 10 μg/mL (scorpion venom). Both of the agonists were purchased from Sigma Aldrich, St. Louis, Mo.
Test Compounds: Test compounds were dissolved in DMSO to yield 10 mM stock solutions. […] If a particular test article appeared to be especially potent, then the concentration curve was adjusted, e.g., to 10-fold lower concentrations, in order to perform the dose-response in a more relevant concentration range. Compound dilutions were added during the dye-loading and pre-stimulation step, and then again during the fluorescence assay, early in the kinetic read.
Data Analysis: The data were analyzed according to methods known to those skilled in the art or using the GraphPad® Prism version 4.0 or higher, Program (available from GraphPad Software, San Diego, Calif.) to determine the IC50 value for the test article. At least one standard reference compound was evaluated during each experiment.
FLIPR® or FLIPR^TETRA® sodium dye assay with KCl and test article pre-incubation: Cells were prepared by plating the recombinant HEK293 cells or other host cells expressing either recombinant or non-recombinant, native, Nav1.7 alpha subunit, alone or in combination with various beta and gamma subunits at a density of ˜40,000 cells/well into a 96-well black, clear-bottom, PDL-coated plate. The assay can be adapted to 384-well or 1,536-well format, if desired, using proportionately less cells and media. The plate was then incubated in growth media, with or without selective antibiotic, overnight at 37° C. at 5% CO2, 95% humidity, in preparation for the assay. For counter-screens of other voltage-gated sodium channels, the procedure was very similar, though optimal densities of cells, media and subsequent assay components can be fine-tuned for the particular cell line or isoform.

hNav1.7 = hNav1.7 (Homo sapiens (Human), UniProt Q15858); assay: Electrophysiology (EP) whole-cell patch clamp assay; type: cell-based; conditions: hNav1.7 HEK-293 cells; for Ki: affinity for the inactivated state of the channel, read-out: Nav1.7 Activity EP assay Ki; for Kd: resting block dissociation constant, read-out: Nav1.7 Activity EP assay Kr
Description: Cells: The hNav1.7 expressing HEK-293 cells were plated on 35 mm culture dishes pre-coated with poly-D-lysine in standard DMEM culture media (Mediatech, Inc., Herndon, Va.) and incubated in a 5% CO2 incubator at 37° C. Cultured cells were used approximately 12-48 hours after plating.
Electrophysiology: On the day of experimentation, the 35 mm dish was placed on the stage of an inverted microscope equipped with a perfusion system that continuously perfuses the culture dish with fresh recording media. A gravity driven superfusion system was used to apply test solutions directly to the cell under evaluation. This system consists of an array of glass pipette glass connected to a motorized horizontal translator. The outlet of the shooter was positioned approximately 100 μm from the cell of interest.
Whole cell currents were recorded using the whole-cell patch clamp configuration using an Axopatch 200B amplifier (Axon Instruments, Foster City Calif.), 1322A A/D converter (Axon Instruments) and pClamp software (v. 8; Axon Instruments) and stored on a personal computer. Gigaseals were formed and the whole-cell configuration was established in voltage clamp mode, and membrane currents generated by hNav1.7 were recorded in gap-free mode. Borosilicate glass pipettes have resistance values between 1.5 and 2.0 MΩ when filled with pipette solution and series resistance (<5 MΩ) was compensated 75-80%. Signals were sampled at 50 kHz and low pass filtered at 3 kHz.
Voltage protocols: After establishing the whole-cell configuration in voltage clamp mode, voltage protocols were run to establish the 1) test potential, 2) holding potential, and 3) the conditioning potential for each cell.
After establishing the whole-cell configuration in voltage clamp mode, a standard I-V protocol was run to determine the potential at which the maximal current (Imax) is elicited. This potential was the test potential (Vt). To determine a conditioning potential at which 100% of channels were in the inactivated state, a standard steady-state inactivation (SSIN) protocol was run using a series of fifteen 100 ms-long depolarizing prepulses, incrementing in 10 mV steps, immediately followed by a 5 ms testing pulse, Vt, to Vmax. This protocol also permitted determination of the holding potential at which all channels are in the resting state.
For compounds causing significant retardation of recovery from inactivation, an estimate of the affinity for the inactivated state of the channel (Ki) was generated using the following protocol. From the negative, no residual inactivation, holding potential, the cell was depolarized to the conditioning voltage for 2-5 seconds, returned to the negative holding potential for 10-20 ms to relieve fast inactivation and then depolarized to the test potential for ˜15 ms. This voltage protocol was repeated every 10-15 seconds, first to establish a baseline in the absence of the test compound, then in the presence of the test compound.
After a stable baseline was established, the test compound was applied and block of the current elicited by the test pulse assessed. In some cases, multiple cumulative concentrations were applied to identify a concentration that blocked between 40-60% of this current. Washout of the compound was attempted by superfusing with control solution once steady-state block was observed. An estimate of the Ki was calculated as follows: Ki=[drug]*{FR/(1−FR)}, Eq. 1
where [drug] is the concentration of a drug, and FR=I(after drug)/I(control), Eq. 2 where I is the peak current amplitude. If multiple concentrations were used, Ki was determined from the fit of a logistic equation to FRs plotted against corresponding drug concentrations.
In the alternative, the voltage clamp protocol to examine hNav1.7 currents was as follows. […]

Chain of human Nav1.7 (Q15858 other isoform, or with tags, fused parts or gaps): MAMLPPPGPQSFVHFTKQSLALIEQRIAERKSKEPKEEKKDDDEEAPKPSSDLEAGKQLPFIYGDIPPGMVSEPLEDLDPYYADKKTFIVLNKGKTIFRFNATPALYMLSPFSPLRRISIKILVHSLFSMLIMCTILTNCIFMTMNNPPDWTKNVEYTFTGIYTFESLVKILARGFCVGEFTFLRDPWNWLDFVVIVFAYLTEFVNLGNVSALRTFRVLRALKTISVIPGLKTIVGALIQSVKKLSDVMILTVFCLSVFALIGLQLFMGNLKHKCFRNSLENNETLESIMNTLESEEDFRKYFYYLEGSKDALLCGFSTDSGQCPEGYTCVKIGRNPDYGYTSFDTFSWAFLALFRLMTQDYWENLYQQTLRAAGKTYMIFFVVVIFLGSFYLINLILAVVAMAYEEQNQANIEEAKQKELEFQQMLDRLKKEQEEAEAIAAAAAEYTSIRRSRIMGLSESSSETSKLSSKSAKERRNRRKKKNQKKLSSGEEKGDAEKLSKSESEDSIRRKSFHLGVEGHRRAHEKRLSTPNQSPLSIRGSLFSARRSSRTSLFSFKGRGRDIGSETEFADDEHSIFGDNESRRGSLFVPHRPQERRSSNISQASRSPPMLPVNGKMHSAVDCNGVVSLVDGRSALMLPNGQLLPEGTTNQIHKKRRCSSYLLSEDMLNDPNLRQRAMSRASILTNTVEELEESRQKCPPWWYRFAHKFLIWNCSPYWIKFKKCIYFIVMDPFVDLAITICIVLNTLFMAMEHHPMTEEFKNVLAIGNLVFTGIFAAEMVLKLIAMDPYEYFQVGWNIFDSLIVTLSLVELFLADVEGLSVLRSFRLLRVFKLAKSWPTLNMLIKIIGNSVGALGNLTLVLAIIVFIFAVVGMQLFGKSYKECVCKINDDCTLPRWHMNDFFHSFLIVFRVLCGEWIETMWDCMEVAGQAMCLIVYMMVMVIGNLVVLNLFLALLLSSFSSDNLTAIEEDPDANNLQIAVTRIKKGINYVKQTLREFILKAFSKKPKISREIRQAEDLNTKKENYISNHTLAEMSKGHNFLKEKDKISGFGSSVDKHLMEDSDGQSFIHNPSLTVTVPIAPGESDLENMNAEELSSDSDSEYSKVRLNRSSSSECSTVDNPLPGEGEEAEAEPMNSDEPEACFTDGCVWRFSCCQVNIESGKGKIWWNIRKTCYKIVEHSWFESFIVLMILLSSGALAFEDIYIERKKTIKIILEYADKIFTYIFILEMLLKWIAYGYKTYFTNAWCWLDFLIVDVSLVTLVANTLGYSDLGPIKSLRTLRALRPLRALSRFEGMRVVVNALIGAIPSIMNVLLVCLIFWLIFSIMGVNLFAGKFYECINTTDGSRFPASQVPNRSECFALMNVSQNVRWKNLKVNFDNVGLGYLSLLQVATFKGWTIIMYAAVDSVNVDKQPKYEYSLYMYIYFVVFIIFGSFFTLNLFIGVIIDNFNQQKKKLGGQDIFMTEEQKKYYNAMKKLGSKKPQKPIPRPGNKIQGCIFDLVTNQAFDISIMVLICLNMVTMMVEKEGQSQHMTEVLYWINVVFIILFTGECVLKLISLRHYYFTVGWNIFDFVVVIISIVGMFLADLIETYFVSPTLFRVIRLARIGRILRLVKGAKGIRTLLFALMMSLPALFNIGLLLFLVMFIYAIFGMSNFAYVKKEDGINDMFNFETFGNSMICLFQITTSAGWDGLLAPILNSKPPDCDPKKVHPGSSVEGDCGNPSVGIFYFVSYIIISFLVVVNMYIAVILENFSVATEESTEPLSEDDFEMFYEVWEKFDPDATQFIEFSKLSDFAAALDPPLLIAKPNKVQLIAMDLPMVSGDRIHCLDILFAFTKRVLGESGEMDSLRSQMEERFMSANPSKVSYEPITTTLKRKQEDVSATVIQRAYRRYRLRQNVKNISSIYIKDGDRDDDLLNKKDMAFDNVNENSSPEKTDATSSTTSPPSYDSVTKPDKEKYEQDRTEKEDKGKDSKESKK
Chain of hNav1.7 (Q15858 other isoform, or with tags, fused parts or gaps): as above

SMILES | IC50 (human Nav1.7) | Ki (hNav1.7) | Kd (hNav1.7)
N#Cc1ccc(Oc2ccc(-c3nc(C(N)=O)cc([C@H](O)CO)n3)cc2)c(C(F)(F)F)c1 [compound 5] | 526 ± 129 nM | – | –
NC(=O)c1cc([C@@H](O)CO)nc(-c2ccc(Oc3ccc(Cl)cc3F)cc2)n1 [compound 9] | 67 ± 5 nM | 27 ± 0.3 nM | 1040 ± 230 nM
NC(=O)c1cc([C@H](O)CO)nc(-c2ccc(Oc3ccc(Cl)cc3F)cc2)n1 [compound 10] | 84 ± 29 nM | – | –
N#Cc1cc(Oc2ccc(-c3nc(C(N)=O)cc([C@H](O)CO)n3)cc2)ccc1C(F)(F)F [compound 11] | 279 ± 112 nM | 147 ± 30 nM | 2010 ± 310 nM
N#Cc1ccc(Oc2ccc(-c3nc(C(N)=O)cc([C@@H](O)CO)n3)cc2)cc1C(F)(F)F [compound 12] | 384 ± 29 nM | 400 ± 90 nM | 8670 ± 990 nM
N#Cc1ccc(Oc2ccc(-c3nc(C(N)=O)cc([C@H](O)CO)n3)cc2)cc1C(F)(F)F [compound 13] | 394 ± 19 nM | 195 ± 30 nM | 5150 ± 360 nM
COC(=O)[C@H](C)NC(=O)c1cc([C@H](O)CO)nc(-c2ccc(Oc3ccc(F)cc3)cc2)n1 [compound 14] | 1920 ± 401 nM | – | –
C[C@H](NC(=O)c1cc([C@H](O)CO)nc(-c2ccc(Oc3ccc(F)cc3)cc2)n1)C(=O)O [compound 15] | > 20000 nM | – | –
C[C@H](NC(=O)c1cc([C@H](O)CO)nc(-c2ccc(Oc3ccc(F)cc3)cc2)n1)C(N)=O [compound 16] | 593 ± 4 nM | 643 ± 190 nM | 154000 ± 54400 nM
NC(=O)c1cc([C@H](O)CO)nc(-c2ccc(Oc3ccc(C(F)(F)F)cc3)cc2)n1 [compound 17] | 133 ± 26 nM | – | –
NC(=O)c1cc([C@@H](O)CO)nc(-c2ccc(Oc3ccc(C(F)(F)F)cc3)cc2)n1 [compound 18] | 135 ± 28 nM | – | –
NC(=O)c1cc([C@H](O)CO)nc(-c2ccc(Oc3ccc(C(F)(F)F)cn3)cc2)n1 [compound 19] | 325 nM | – | –
